From patent publication US6352976B1, “Selective inhibitors of MMP-12” (Aventis Pharmaceuticals Inc., priority 1998, dated 2002)

Molecular target: T1, MMP-12 (macrophage metalloelastase) (Homo sapiens, UniProt P39900)
T1 construct: made in house
Experiment: Determination of the inhibition constant (Ki) for MMP-12, fluorogenic substrate
Assay type: biochemical
Settings: compared to their N-methylamide derivatives (Examples 6 and 7); from Ki values of Table 2
Experimental: MMP-12 (EC3.4.24.65) was cloned, expressed and purified according to Shapiro, S. D. et al., J Biol. Chem. 268, 23824-23829 (1993). […] Aliquots of MMP-12 were stored at −70° C.
The potency of inhibitors of MMP-12 was measured using either quartz cuvettes or microtiter plates. The activity of MMP-12 was measured using a fluorogenic substrate, Mca-Pro-Leu-Gly-Leu-Dpa-Ala-Arg-NH2 SEQ ID NO1, Knight, C. G. et al., FEBS Lett. 296,263-266 (1992), at 25° C. in an assay buffer containing 50 mM Tris, pH 7.6, 0.2 M sodium chloride, 50 mM calcium chloride, and 0.02% Brij-35. The increase in fluorescence due to cleavage of Gly-Leu peptide bond by MMP-12 was monitored with a Perkin-Elmer LS50B Fluorimeter (λex 328 nm, λem 393 nm, excitation slit 2.5, emission slit 10) for the cuvette assay and with a Molecular Devices Fmax fluorescence plate reader (λex 320 nm, λem 405 nm) for the microtiter plate assay. Substrate and inhibitor stock solutions were made in N,N-dimethylformamide (DMF) and 0.1% HCl-DMF, respectively.
Ki values were determined using the cuvette method by preparing a series of intermediate inhibitors solutions in 0.1% HCl-DMF and mixing the inhibitor with substrate (final concentration 2 μM) in a quartz cuvette containing 2 ml of assay buffer. MMP-12 was added to start the reaction at a concentration of 2 nM and progress curves were generated. For routine measurement of a Ki value for a reversible competitive inhibitor, the initial rates in the presence of at least four inhibitor concentrations (two concentrations above and two concentrations below the Ki) were measured [S]=2 μM (<<Km) and [MMP-12]=2 nM. Under these conditions, the measured Ki,app is close to the true Ki.
Ki values were determined using the microtiter plate method in a manner similar to that described for the cuvette method with some modifications. Four different inhibitor concentrations (50 μl in assay buffer) of each compound were added to separate wells of a microtiter plate and substrate was added (100 μl) to get a final concentration of […]. MMP-12 was added to a final concentration of 2 nM (50 μl) to start the reaction. Cleavage of substrate was recorded every 30 seconds for 30 minutes and progress curves were generated.
The Ki for a competitive inhibitor was calculated using: V0/Vi=(1+[I]/Ki,app) and Ki=Ki,app/(1+[S]/Km), where V0 is the initial rate in the absence of inhibitor, Vi is the initial rate in the presence of inhibitor at the concentration of [I], [S] is the substrate concentration, and Km is the Michaelis constant. If slow binding is observed (i.e. if the approach to the binding equilibrium is slow), the final steady-state rate rather than the initial rate is taken as Vi.

T1 sequence (P39900 106-263 limits assumed): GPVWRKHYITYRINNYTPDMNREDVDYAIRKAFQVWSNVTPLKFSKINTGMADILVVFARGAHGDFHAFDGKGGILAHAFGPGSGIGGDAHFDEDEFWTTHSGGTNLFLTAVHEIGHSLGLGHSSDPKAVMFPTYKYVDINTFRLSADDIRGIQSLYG

Row | Structure (SMILES) | selectivity for MMP-12 over MMP-1, MMP-2, and MMP-3
1 | CCCC(S)C(=O)N[C@@H](CCc1ccccc1)C(=O)N[C@@H](Cc1ccccc1)C(=O)O (some centres unmarked) [Example 1, 2-Mercapto-pentanoyl-(L)-homo-phenylalanyl-(L)-phenylalanine] | selective for MMP-12 over MMP-1, MMP-2, and MMP-3
2 | CC(C)[C@H](S)C(=O)N[C@@H](CCc1ccccc1)C(=O)N[C@@H](Cc1ccccc1)C(=O)O [Example 2, (S)-2-Mercapto-3-methylbutyroyl-(L)-homo-phenylalanyl-(L)-phenylalanine] | selective for MMP-12 over MMP-1, MMP-2, and MMP-3
